Laboratory results as given in paper PMC4506051, “Pharmacokinetic Profiles of Active Ingredients and Its Metabolites Derived from Rikkunshito, a Ghrelin Enhancer, in Healthy Japanese Volunteers: A Cross-Over, Randomized Study” (PLoS ONE, 2015).
Read-outs that look alike come from different tables or passages of the source. Values belong to the molecule of their own block, whether it stands above or below them.

What was measured:
[1] = Randomized crossover quantitative trial: plasma pharmacokinetics of nine ingredients after rikkunshito 2.5, 5.0 or 7.5 g; settings: for Tmax / AUC(0-t) / Cmax / half-life: human, plasma; for AUC(0-t): AUC0-last; for Cmax: C max
Excerpt: The first trial was a nonrandomized, open-label, one-period design. The second trial was a randomized, open-label, three-arm, three-period design (Fig 1). With respect to inclusion criteria, the studies included healthy Japanese adults between 20 and 45 years of age with a body mass index between 18 and 25 who were willing and able to comply with the study requirements. Exclusion criteria for this study included a history of significant liver, heart, or vessel disease and consumption of supplements that contained any rikkunshito ingredients or any drug within 3 days to 1 week before the first dose. Other standard exclusion criteria included relevant allergies, pregnant or nursing females, and any alcohol or nicotine use. The sample size was set as more than 15 based on the Ministry of Health, Labour and Welfare’s guidelines. Subjects allocated to a screening test were randomized to one of three groups by the central allocation system (allocation ratio 1:1:1). A random sequence was generated using a computer. The safety endpoint was evaluated in all volunteers. This endpoint was defined on the basis of a physician’s judgement after examination or observation that a serious adverse event had occurred. Adverse events included death, a life-threatening event, an event requiring hospitalization for treatment or an extended stay in hospital, an event resulting in permanent or temporary disability or dysfunction, an event resulting in a congenital abnormality, or any other serious medical phenomenon. With respect to side effects, no specific conditions were defined, and all adverse events for which no causal relationship with the drug could be excluded were deemed to be side effects. In each stage during the 48-h period following rikkunshito administration, the physician monitored the patient for subjective symptoms, objective findings, swelling, body temperature (axillary), blood pressure (sitting), and pulse (sitting). The physician also conducted a hematological examination to measure the patient’s red blood cell, leucocyte and platelet counts, hemoglobin level, and hematocrit value. A biochemical examination was conducted to determine total protein, blood urea nitrogen, creatinine, uric acid, aspartate aminotransferase, alanine aminotransferase, total bilirubin, alkaline phosphatase, γ-glutamyltranspeptidase albumin, prothrombin time, total cholesterol, C-reactive protein, and potassium to identify any abnormalities in comparison with the subject’s condition prior to administration. All participants fasted for 12 h before administration and 4 h after administration of the study drug.
In the second quantitative trial, 12-mL blood samples were collected at 0 (preadministration), 0.25, 0.5, 1, 2, 3, 4, 6, 8, 10, 12, 24, and 48 h after a single oral administration of rikkunshito (Lot H05142). A total of 3 daily doses were used in this trial, i.e., the clinical dose per administration (2.5 g) as the lowest dose, the clinical daily dose (7.5 g) as the highest dose, and an intermediate dose (5.0 g), to broadly discuss the pharmacokinetic characteristics of the ingredients measured. The trial participants were hospitalized overnight on the day they ingested rikkunshito, and returned home the following day after blood samples were collected at the 24-h time point. The participants returned to the hospital to provide blood samples at 48 h. The blood was immediately centrifuged at 1700 ×g for 15 min to obtain plasma. Plasma fractions were stored at −20°C or lower until analysis.
Plasma, urine, and rikkunshito formulation samples were analyzed for rikkunshito ingredients concentrations using a liquid chromatography–mass spectrometry with tandem mass spectrometer assay (LC–MS/MS; API5000, Triple Quad 6500, or QTRAP5500; AB Sciex, Tokyo, Japan) or gas chromatography–mass spectrometry. Further information of analytical methods can be found at S1 Appendix.

[2] = Method validation: long-term stability in plasma
[3] = Method validation: stability in blood
[4] = Dose proportionality (linearity) test by power model for C max and AUC0-last; settings: rikkunshito 2.5, 5.0 or 7.5 g
Experimental: The dose proportionality was analyzed via a power model [21, 22]. […] Evaluation of linearity of the dosage-exposure relationship was conducted with Phoenix WinNonlin and SAS 9.2 (SAS Institute, Inc., Cary, NC).

[5] = protocol rationale for final sampling time; cited from earlier work
[6] = Method validation: stability in standard, stock and working solution
[7] = Method validation: post-preparative stability (autosampler)
[8] = Method validation: short-term stability in plasma
[9] = Method validation: freeze-thaw stability in plasma; settings: deep freezer (−30°C to −10°C), after 3 cycles of freeze-thaw
[10] = po, 2.5 g, rikkunshito 2.5 g single oral, n = 21, geometric mean (95% CI)
[11] = po, 2.5 g, Median t max (range), rikkunshito 2.5 g single oral, n = 21, median (minimum–maximum)
[12] = po, 5 g, rikkunshito 5.0 g single oral, n = 19, geometric mean (95% CI)
[13] = po, 5 g, Median t max (range), rikkunshito 5.0 g single oral, n = 19, median (minimum–maximum)
[14] = po, 5 g, t 1/2, rikkunshito 5.0 g single oral, n = 19, geometric mean (95% CI)
[15] = po, 7.5 g, rikkunshito 7.5 g single oral, n = 19, geometric mean (95% CI)
[16] = rikkunshito 7.5 g single oral, n = 19, geometric mean (95% CI)
[17] = rikkunshito 7.5 g single oral, n = 19, median (minimum–maximum)

Tmax ([1]; oral, t max, after rikkunshito administration, dose not given): 8 h
AUC(0-t) [1, 10]: 292 ng·h/mL
Cmax [1, 10]: 23 ng/mL
Tmax [1, 11]: 8 h
AUC(0-t) [1, 12]: 638 ng·h/mL
Cmax [1, 12]: 44.2 ng/mL
Tmax [1, 13]: 8 h
half-life [1, 14]: 8.94 h
AUC(0-t) [1, 15]: 832 ng·h/mL
Cmax [1, 15]: 55.6 ng/mL
half-life ([1]; po, 7.5 g, t 1/2, rikkunshito 7.5 g single oral, n = 19, geometric mean (95% CI)): > 10 h
t 1/2 [1, 16]: 11.7 (8.90–15.3) h
Median t max (range) [1, 17]: 8.00 (5.98–23.7) h
Median t max (range) ([1]; rikkunshito 7.5 g single oral, n = 19, median (minimum–maximum), listed as 18β-glycyrrhetinic acid): exceeding 3 h
Long-term stability, RR ([2]; 1600 pg/mL, freezer (−30°C to −10°C) for 13 days): 102.6%
Long-term stability, RR ([2]; 1600 pg/mL, freezer (−30°C to −10°C) for 39 days): 108.3%
Long-term stability, RR ([2]; 1600 pg/mL, freezer (−30°C to −10°C) for 228 days): 113.5%
Long-term stability, RR ([2]; 64000 pg/mL, freezer (−30°C to −10°C) for 13 days): 113.1%
Long-term stability, RR ([2]; 64000 pg/mL, freezer (−30°C to −10°C) for 39 days): 104.4%
Long-term stability, RR ([2]; 64000 pg/mL, freezer (−30°C to −10°C) for 228 days): 109.2%
Stability in blood, RR ([3]; 1600 pg/mL, at room temperature for 2 h): 104.2%
Stability in blood, RR ([3]; 1600 pg/mL, on ice for 2 h): 108.8%
Stability in blood, RR ([3]; 64000 pg/mL, at room temperature for 2 h): 98.2%
Stability in blood, RR ([3]; 64000 pg/mL, on ice for 2 h): 99.1%
Dose proportionality test using power model, β ([4]; AUC0-last): 0.979
Dose proportionality test using power model, β ([4]; Cmax): 0.819
Working solution stability, RR ([6]; 8 ng/mL, refrigerator (1°C to 8°C) for 53 days): 108.4%
Working solution stability, RR ([6]; 800 ng/mL, refrigerator (1°C to 8°C) for 53 days): 100.7%
Stock solution stability, RR ([6]; 0.8 mg/mL, refrigerator (1°C to 8°C) for 54 days): 54 days: 100.0%
Stock solution stability, RR ([6]; 0.8 mg/mL, refrigerator (1°C to 8°C) for 129 days): 129 days: 100.0%
Post-preparative stability, RR ([7]; 1600 pg/mL, autosampler set at 4°C for 24 h): 106.0%
Post-preparative stability, RR ([7]; 1600 pg/mL, autosampler set at 4°C for 48 h): 110.8%
Post-preparative stability, RR ([7]; 64000 pg/mL, autosampler set at 4°C for 24 h): 104.9%
Post-preparative stability, RR ([7]; 64000 pg/mL, autosampler set at 4°C for 48 h): 111.4%
Short-term stability, RR ([8]; 1600 pg/mL, at room temperature for 4 h): 89.0%
Short-term stability, RR ([8]; 1600 pg/mL, at room temperature for 25 h): 90.2%
Short-term stability, RR ([8]; 64000 pg/mL, at room temperature for 4 h): 98.9%
Short-term stability, RR ([8]; 64000 pg/mL, at room temperature for 25 h): 105.0%
Structure (SMILES): CC1(C)[C@@H](O)CC[C@]2(C)[C@H]3C(=O)C=C4[C@@H]5C[C@@](C)(C(=O)O)CC[C@]5(C)CC[C@@]4(C)[C@]3(C)CC[C@@H]12 [18β-Glycyrrhetinic acid]
half-life [5]: approximately 10 h

Structure (SMILES): O=C(/C=C/c1ccc(O)cc1)c1ccc(O)cc1O [Isoliquiritigenin]
Freeze-thaw stability, RR ([9]; 4 pg/mL): 95.3%
Freeze-thaw stability, RR ([9]; 160 pg/mL): 88.3%
AUC(0-t) [1, 10]: 0.0307 ng·h/mL
Cmax [1, 10]: 0.0205 ng/mL
Tmax [1, 11]: 0.25 h
AUC(0-t) [1, 12]: 0.0766 ng·h/mL
Cmax [1, 12]: 0.0321 ng/mL
Tmax [1, 13]: 0.25 h
half-life [1, 14]: 4.12 h
AUC(0-t) [1, 15]: 0.122 ng·h/mL
Cmax [1, 15]: ~0.0428 ng/mL
C max [1, 16]: 42.8 (30.4–60.3) pg/mL
t 1/2 [1, 16]: 3.26 (1.69–6.31) h
t 1/2 ([1]; rikkunshito 7.5 g single oral, n = 19, geometric mean (95% CI), listed as isoliquiritigenin): < 10 h
Median t max (range) [1, 17]: 0.250 (0.250–4.00) h
Median t max (range) ([1]; rikkunshito 7.5 g single oral, n = 19, median (minimum–maximum), listed as isoliquiritigenin): ≤ 1 h
Long-term stability, RR ([2]; 4 pg/mL, freezer (−30°C to −10°C) for 22 days): 99.0%
Long-term stability, RR ([2]; 4 pg/mL, freezer (−30°C to −10°C) for 31 days): 105.0%
Long-term stability, RR ([2]; 4 pg/mL, freezer (−30°C to −10°C) for 220 days): 102.8%
Long-term stability, RR ([2]; 160 pg/mL, freezer (−30°C to −10°C) for 22 days): 95.0%
Long-term stability, RR ([2]; 160 pg/mL, freezer (−30°C to −10°C) for 31 days): 87.7%
Long-term stability, RR ([2]; 160 pg/mL, freezer (−30°C to −10°C) for 220 days): 85.5%
Stability in blood, RR ([3]; 4 pg/mL, at room temperature for 2 h): 81.0%
Stability in blood, RR ([3]; 4 pg/mL, on ice for 2 h): 103.0%
Stability in blood, RR ([3]; 160 pg/mL, at room temperature for 2 h): 46.8%
Stability in blood, RR ([3]; 160 pg/mL, on ice for 2 h): 90.2%
Dose proportionality test using power model, β ([4]; AUC0-last): 1.27
Dose proportionality test using power model, β ([4]; Cmax): 0.692
Working solution stability, RR ([6]; 0.02 ng/mL, refrigerator (1°C to 8°C) for 53 days): 89.9%
Working solution stability, RR ([6]; 0.02 ng/mL, refrigerator (1°C to 8°C) for 128 days): 108.2%
Working solution stability, RR ([6]; 2 ng/mL, refrigerator (1°C to 8°C) for 53 days): 92.7%
Working solution stability, RR ([6]; 2 ng/mL, refrigerator (1°C to 8°C) for 128 days): 102.2%
Stock solution stability, RR ([6]; 0.1 mg/mL, refrigerator (1°C to 8°C) for 54 days): 54 days: 96.9%
Stock solution stability, RR ([6]; 0.1 mg/mL, refrigerator (1°C to 8°C) for 129 days): 129 days: 96.9%
Post-preparative stability, RR ([7]; 4 pg/mL, autosampler set at 4°C for 25 h): 110.0%
Post-preparative stability, RR ([7]; 4 pg/mL, autosampler set at 4°C for 48 h): 88.0%
Post-preparative stability, RR ([7]; 160 pg/mL, autosampler set at 4°C for 25 h): 115.2%
Post-preparative stability, RR ([7]; 160 pg/mL, autosampler set at 4°C for 48 h): 93.8%
Short-term stability, RR ([8]; 4 pg/mL, at room temperature for 4 h): 97.0%
Short-term stability, RR ([8]; 4 pg/mL, at room temperature for 24 h): 96.5%
Short-term stability, RR ([8]; 160 pg/mL, at room temperature for 4 h): 85.2%
Short-term stability, RR ([8]; 160 pg/mL, at room temperature for 24 h): 101.2%
